The test system of one experiment is NCI-H3255. As to the kind of experiment: Cytotoxicity against human NCI-H3255 cells assessed as inhibition of cell growth incubated for 48 hrs by MTT assay. It is filed as functional, cell-based. The following applies: NCI-H3255, 48 h. (Tetrazolium assays rely on reduction of a dye to a coloured formazan, in cell work by metabolically active cells.)
The next experiment concerns A549. As to the kind of experiment: Cytotoxicity against human A549 cells assessed as inhibition of cell growth incubated for 48 hrs by MTT assay. The format is functional, cell-based. The settings on record: A549, 48 h.
In experiment [1] the test system is PC-3. Briefly: Cytotoxicity against human PC-3 cells assessed as inhibition of cell growth incubated for 48 hrs by MTT assay. The format is functional, cell-based. The following applies: PC-3, 48 h.
In the next experiment the test system is NCI-H446. As to the kind of experiment: Cytotoxicity against human NCI-H446 cells assessed as inhibition of cell growth incubated for 48 hrs by MTT assay. The following applies: NCI-H446, 48 h. The format is functional, cell-based.
Experiment [2] deals with PC-3. Briefly: Induction of apoptosis in human PC-3 cells assessed as increase in ROS levels at measured after 24 hrs by DCFH-DA staining based flow cytometry assay. The following applies: dose <= 10.0 µM. It is filed as functional, cell-based. (In general: In flow cytometry, cells or beads pass a laser one at a time.)
The test system of experiment [3] is PC-3. Briefly: Induction of apoptosis in human PC-3 cells assessed as late apoptotic cells at 5 uM measured after 24 hrs by annexinV-FITC staining based flow cytometric analysis (reference value: 1.87 %). The format is functional.
The test system of experiment [4] is PC-3. As to the kind of experiment: Induction of apoptosis in human PC-3 cells assessed as early apoptotic cells at 5 uM measured after 24 hrs by annexinV-FITC staining based flow cytometric analysis (reference value: 0.12 %). It is filed as functional.
Experiment [5] relates to PC-3. As to the kind of experiment: Induction of apoptosis in human PC-3 cells assessed as late apoptotic cells at 10 uM measured after 24 hrs by annexinV-FITC staining based flow cytometric analysis (reference value: 1.87 %). The format is functional.
In experiment [6] the test system is PC-3. As to the kind of experiment: Induction of apoptosis in human PC-3 cells assessed as late apoptotic cells at 2.5 uM measured after 24 hrs by annexinV-FITC staining based flow cytometric analysis (reference value: 1.87 %). The format is functional.
Experiment [7] relates to PC-3. Briefly: Induction of apoptosis in human PC-3 cells assessed as early apoptotic cells up to 10 uM measured at 2 hrs by annexinV-FITC staining based flow cytometric analysis (reference value: 0.55 %). The format is functional.
In experiment [8] the test system is PC-3. Briefly: Induction of apoptosis in human PC-3 cells assessed as late apoptotic cells up to 10 uM measured at 24 hrs by annexinV-FITC staining based flow cytometric analysis (reference value: 4.64 %). The format is functional.
For experiment [9], the system named is PC-3. Briefly: Induction of apoptosis in human PC-3 cells assessed as early apoptotic cells up to 10 uM measured at 4 hrs by annexinV-FITC staining based flow cytometric analysis (reference value: 0.55 %). It is filed as functional.
Experiment [10] has as its system PC-3. As to the kind of experiment: Induction of apoptosis in human PC-3 cells assessed as early apoptotic cells at 2.5 uM measured after 24 hrs by annexinV-FITC staining based flow cytometric analysis (reference value: 0.12 %). It is filed as functional.
The test system of experiment [11] is PC-3. As to the kind of experiment: Induction of apoptosis in human PC-3 cells assessed as early apoptotic cells at 10 uM measured after 24 hrs by annexinV-FITC staining based flow cytometric analysis (reference value: 0.12 %). It is filed as functional.
Experiment [12] relates to PC-3. Briefly: Induction of apoptosis in human PC-3 cells assessed as viable cells at 10 uM measured after 24 hrs by annexinV-FITC staining based flow cytometric analysis (reference value: 92.9 %). The settings on record: read-out: Activity. The format is functional.
In experiment [13] the test system is PC-3. As to the kind of experiment: Induction of mitochondrial membrane potential loss in human PC-3 cells at 2 uM measured after 24 hrs by JC-1 dye-based flow cytometric analysis (reference value: 100 %). It is filed as functional.
The subject of experiment [14] is PC-3. As to the kind of experiment: Induction of mitochondrial membrane potential loss in human PC-3 cells at 4 uM measured after 24 hrs by JC-1 dye-based flow cytometric analysis (reference value: 100 %). It is filed as functional.
The subject of experiment [15] is PC-3. As to the kind of experiment: Induction of apoptosis in human PC-3 cells assessed as viable cells at 2.5 uM measured after 24 hrs by annexinV-FITC staining based flow cytometric analysis (reference value: 92.9 %). It is filed as functional. The following applies: read-out: Activity.
Experiment [16] deals with PC-3. As to the kind of experiment: Induction of apoptosis in human PC-3 cells assessed as viable cells up to 10 uM measured at 8 hrs by annexinV-FITC staining based flow cytometric analysis (reference value: 91.1 %). The format is functional.
For experiment [17], the system named is PC-3. As to the kind of experiment: Induction of apoptosis in human PC-3 cells assessed as necrotic cells up to 10 uM measured at 2 hrs by annexinV-FITC staining based flow cytometric analysis (reference value: 3.69 %). The format is functional.
The subject of experiment [18] is PC-3. As to the kind of experiment: Induction of apoptosis in human PC-3 cells assessed as necrotic cells up to 10 uM measured at 8 hrs by annexinV-FITC staining based flow cytometric analysis (reference value: 3.69 %). The format is functional.
For experiment [19], the system named is PC-3. Briefly: Induction of apoptosis in human PC-3 cells assessed as late apoptotic cells up to 10 uM measured at 4 hrs by annexinV-FITC staining based flow cytometric analysis (reference value: 4.64 %). It is filed as functional.
Experiment [20] relates to PC-3. Briefly: Induction of apoptosis in human PC-3 cells assessed as late apoptotic cells up to 10 uM measured at 2 hrs by annexinV-FITC staining based flow cytometric analysis (reference value: 4.64 %). It is filed as functional.
For experiment [21], the system named is PC-3. Briefly: Induction of apoptosis in human PC-3 cells assessed as viable cells at 5 uM measured after 24 hrs by annexinV-FITC staining based flow cytometric analysis (reference value: 92.9 %). It is filed as functional. The following applies: read-out: Activity.
The subject of experiment [22] is PC-3. As to the kind of experiment: Induction of mitochondrial membrane potential loss in human PC-3 cells at 6 uM measured after 24 hrs by JC-1 dye-based flow cytometric analysis (reference value: 100 %). It is filed as functional.
The subject of experiment [23] is PC-3. Briefly: Induction of apoptosis in human PC-3 cells assessed as viable cells up to 10 uM measured att 24 hrs by annexinV-FITC staining based flow cytometric analysis (reference value: 91.1 %). The format is functional.
The subject of experiment [24] is PC-3. As to the kind of experiment: Induction of apoptosis in human PC-3 cells assessed as late apoptotic cells up to 10 uM measured at 12 hrs by annexinV-FITC staining based flow cytometric analysis (reference value: 4.64 %). The format is functional.
For experiment [25], the system named is PC-3. Briefly: Induction of apoptosis in human PC-3 cells assessed as necrotic cells up to 10 uM measured at 4 hrs by annexinV-FITC staining based flow cytometric analysis (reference value: 3.69 %). It is filed as functional.
For experiment [26], the system named is PC-3. Briefly: Induction of apoptosis in human PC-3 cells assessed as early apoptotic cells up to 10 uM measured at 12 hrs by annexinV-FITC staining based flow cytometric analysis (reference value: 0.55 %). The format is functional.
Experiment [27] relates to PC-3. As to the kind of experiment: Induction of apoptosis in human PC-3 cells assessed as viable cells up to 10 uM measured at 2 hrs by annexinV-FITC staining based flow cytometric analysis (reference value: 91.1 %). The format is functional.
For experiment [28], the system named is PC-3. As to the kind of experiment: Induction of apoptosis in human PC-3 cells assessed as viable cells up to 10 uM measured at 4 hrs by annexinV-FITC staining based flow cytometric analysis (reference value: 91.1 %). The format is functional.
The test system of experiment [29] is PC-3. Briefly: Induction of apoptosis in human PC-3 cells assessed as early apoptotic cells up to 10 uM measured at 8 hrs by annexinV-FITC staining based flow cytometric analysis (reference value: 0.55 %). It is filed as functional.
In experiment [30] the test system is PC-3. Briefly: Induction of apoptosis in human PC-3 cells assessed as necrotic cells at 5 uM measured after 24 hrs by annexinV-FITC staining based flow cytometric analysis (reference value: 5.09 %). The format is functional.
The test system of experiment [31] is PC-3. As to the kind of experiment: Induction of apoptosis in human PC-3 cells assessed as viable cells up to 10 uM measured att 12 hrs by annexinV-FITC staining based flow cytometric analysis (reference value: 91.1 %). It is filed as functional.
For experiment [32], the system named is PC-3. Briefly: Induction of apoptosis in human PC-3 cells assessed as late apoptotic cells up to 10 uM measured at 8 hrs by annexinV-FITC staining based flow cytometric analysis (reference value: 4.64 %). It is filed as functional.
For experiment [33], the system named is PC-3. As to the kind of experiment: Induction of apoptosis in human PC-3 cells assessed as necrotic cells at 10 uM measured after 24 hrs by annexinV-FITC staining based flow cytometric analysis (reference value: 5.09 %). It is filed as functional.
Experiment [34] deals with PC-3. Briefly: Induction of apoptosis in human PC-3 cells assessed as necrotic cells up to 10 uM measured at 24 hrs by annexinV-FITC staining based flow cytometric analysis (reference value: 3.69 %). It is filed as functional.
Experiment [35] relates to PC-3. Briefly: Induction of apoptosis in human PC-3 cells assessed as early apoptotic cells up to 10 uM measured at 24 hrs by annexinV-FITC staining based flow cytometric analysis (reference value: 0.55 %). The format is functional.
The subject of experiment [36] is PC-3. As to the kind of experiment: Induction of apoptosis in human PC-3 cells assessed as necrotic cells at 2.5 uM measured after 24 hrs by annexinV-FITC staining based flow cytometric analysis (reference value: 5.09 %). It is filed as functional.
The subject of experiment [37] is PC-3. Briefly: Induction of apoptosis in human PC-3 cells assessed as necrotic cells up to 10 uM measured at 12 hrs by annexinV-FITC staining based flow cytometric analysis (reference value: 3.69 %). It is filed as functional.

Structures can show the parent of a compound that is named as a salt.

`C=C(C[C@@H](C)[C@H]1[C@H](O)C[C@@]2(C)[C@@H]3CC[C@H]4C(C)(C)[C@@H](O)CC[C@]4(O)CC3=CC[C@]12C)C(C)C`: the IC50 – broadly, the concentration needed to halve the response being measured – in the experiment with NCI-H3255 is above 10 µM; in the experiment on A549, 8.8 µM; in the experiment with PC-3 [1] it was 8.6 µM; in the experiment on NCI-H446, 9.6 µM.

With `CC(C)=CCC[C@@H](C)[C@H]1[C@H](O)C[C@@]2(C)[C@@H]3CC[C@H]4C(C)(C)[C@@H](O)CC[C@]4(O)CC3=CC[C@]12C`, the IC50 in the experiment on NCI-H3255 was 9.4 µM; in the experiment with A549, 7 µM; in the experiment on PC-3 [1], 6.5 µM; with NCI-H446, 7.5 µM.

As to `C=C(C)C(=O)CC[C@@H](C)[C@H]1[C@H](O)C[C@@]2(C)[C@@H]3CC[C@H]4C(C)(C)[C@@H](O)CC[C@]4(O)CC3=CC[C@]12C`, the Activity entry with PC-3 [2] was “Dose-Dependent Effect”; with PC-3 [3], 3.81%; in the experiment on PC-3 [4], 1.64%; in the experiment with PC-3 [5], 40.3%; in the experiment with PC-3 [6], 2.06%; in the experiment with PC-3 [7], 0.33%. Also, the Activity in the experiment on PC-3 [8] turned out to be 9.45%; with PC-3 [9], 0.39%; with PC-3 [10] it was 0.29%; with PC-3 [11] it was 0.78%; in the experiment on PC-3 [13] it was 85.2%; in the experiment on PC-3 [14], 71.5%. Also, the Activity with PC-3 [16] is 88.8%; in the experiment with PC-3 [17], 6.41%; in the experiment with PC-3 [18] it was 4.5%; in the experiment with PC-3 [19], 5.8%; with PC-3 [20], 4.82%; with PC-3 [22], 16.8%. Besides, the Activity is given as 83% in the experiment with PC-3 [23]; 7.37% in the experiment with PC-3 [24]; 6.67% with PC-3 [25]; 2.63% in the experiment on PC-3 [26]; 88.4% in the experiment with PC-3 [27]; 87.1% in the experiment with PC-3 [28]. The Activity in the experiment on PC-3 [29] stood at 0.76%; in the experiment on PC-3 [30] it was 2.68%; in the experiment on PC-3 [31], 86.5%; with PC-3 [32] it was 5.96%; in the experiment on PC-3 [33] it was 12.9%; in the experiment with PC-3 [34], 4.25%. Moreover, the Activity with PC-3 [35] came out at 3.3%; with PC-3 [36] it was 4.44%; with PC-3 [37], 3.48%. In the experiment with PC-3 [12], the viability at 10 µM came to 45%. Besides, the IC50 in the experiment with NCI-H3255 was determined as 5.7 µM; in the experiment with A549 it was 4.4 µM; in the experiment on PC-3 [1], 4.2 µM; in the experiment with NCI-H446, 5 µM. Further, the viability at 2.5 µM in the experiment on PC-3 [15] stood at 93.2%. In the experiment with PC-3 [21], the viability at 5 µM is 91.9%.

As to `COc1cccc2c1C(=O)c1c(O)c3c(c(O)c1C2=O)C[C@@](O)(C(=O)CO)C[C@@H]3O[C@H]1C[C@H](N)[C@H](O)[C@H](C)O1` [DOXORUBICIN HYDROCHLORIDE], the IC50 in the experiment with NCI-H3255 was 1.5 µM; in the experiment on A549, 1.2 µM; with PC-3 [1], 0.4 µM; in the experiment with NCI-H446, 1.7 µM.
